Experimental findings from US11814393B2, “Substituted guanidine compounds” (UBE CORPORATION, priority 2016, dated 2023) are described below.

One data set concerns the target T1, rat plasma VAP-1 (Rattus norvegicus, UniProt O08590).
T1 construct: The blood was centrifuged at 14000 rpm for 10 minutes to get plasma; from tissue; host or cells: plasma of SD male rats (ex vivo, after oral dosing)
T1 sequence (O08590 28-763 limits assumed): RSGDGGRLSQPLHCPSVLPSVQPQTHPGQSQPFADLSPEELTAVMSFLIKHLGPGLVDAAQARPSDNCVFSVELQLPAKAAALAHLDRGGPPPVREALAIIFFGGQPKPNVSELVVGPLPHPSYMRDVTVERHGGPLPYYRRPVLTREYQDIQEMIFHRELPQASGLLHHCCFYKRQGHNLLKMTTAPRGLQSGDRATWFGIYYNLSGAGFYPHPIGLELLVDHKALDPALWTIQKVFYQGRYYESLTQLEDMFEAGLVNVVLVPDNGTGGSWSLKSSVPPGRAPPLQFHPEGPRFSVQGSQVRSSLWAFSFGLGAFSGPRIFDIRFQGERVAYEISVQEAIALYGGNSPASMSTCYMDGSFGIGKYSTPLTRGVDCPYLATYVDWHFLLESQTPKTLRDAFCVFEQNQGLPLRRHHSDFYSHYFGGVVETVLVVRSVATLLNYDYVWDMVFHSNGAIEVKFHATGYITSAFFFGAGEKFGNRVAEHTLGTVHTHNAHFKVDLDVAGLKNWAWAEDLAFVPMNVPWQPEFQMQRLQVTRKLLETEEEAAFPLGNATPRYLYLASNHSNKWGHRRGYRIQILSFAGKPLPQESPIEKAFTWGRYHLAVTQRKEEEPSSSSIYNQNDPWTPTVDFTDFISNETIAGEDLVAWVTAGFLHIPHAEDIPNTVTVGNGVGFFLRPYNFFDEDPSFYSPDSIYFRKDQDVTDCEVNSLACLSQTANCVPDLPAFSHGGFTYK
Kind of data set: (Ex vivo) rat plasma VAP-1 inhibition test after oral administration of the compound. Format: in vivo. The conditions noted are these: 3 hours after oral administration, SD male rats, non-fasting, read-out: inhibition ratio (plasma VAP-1 activity). As for the experimental part: (Ex Vivo) Rat Plasma VAP-1 Inhibition Test after Oral Administration of the Compound
The compound was orally administered (0.3-10 mg/kg) to 7-12 week old SD male rats in the non-fasting state. Under anesthesia, the blood was collected in heparin tubes from the jugular vein before the administration and 3, 8 and 24 hours after the administration. The blood was centrifuged at 14000 rpm for 10 minutes to get plasma. The VAP-1 enzyme activity in the plasma was measured by radiochemical enzyme assay.
The radiochemical enzyme assay was conducted by modifying the method of P. H. Yu et al. (Diabetologia 40 1243 (1997)). ^14C-benzylamine (2.5 μM) was added to the obtained plasma, and was incubated at 37° C. for 3 hours. The reaction was terminated by the addition of 100 μL of 2 M citric acid solution to the reaction solution. The oxidative product was extracted using a toluene/ethyl acetate mixture and the radioactivity was measured with a liquid scintillation counter. The inhibition ratio of the compound was calculated using the following equation. Inhibition ratio={1−[Plasma VAP-1 activity after administration of the compound]/[Plasma VAP-1 activity before administration]}×100 [Math. 4]

Another data set has as its target T2, Human VAP-1 enzyme (Homo sapiens, UniProt Q16853).
T2 construct: purchased R&D Systems, Inc
T2 sequence (Q16853 27-763 limits assumed): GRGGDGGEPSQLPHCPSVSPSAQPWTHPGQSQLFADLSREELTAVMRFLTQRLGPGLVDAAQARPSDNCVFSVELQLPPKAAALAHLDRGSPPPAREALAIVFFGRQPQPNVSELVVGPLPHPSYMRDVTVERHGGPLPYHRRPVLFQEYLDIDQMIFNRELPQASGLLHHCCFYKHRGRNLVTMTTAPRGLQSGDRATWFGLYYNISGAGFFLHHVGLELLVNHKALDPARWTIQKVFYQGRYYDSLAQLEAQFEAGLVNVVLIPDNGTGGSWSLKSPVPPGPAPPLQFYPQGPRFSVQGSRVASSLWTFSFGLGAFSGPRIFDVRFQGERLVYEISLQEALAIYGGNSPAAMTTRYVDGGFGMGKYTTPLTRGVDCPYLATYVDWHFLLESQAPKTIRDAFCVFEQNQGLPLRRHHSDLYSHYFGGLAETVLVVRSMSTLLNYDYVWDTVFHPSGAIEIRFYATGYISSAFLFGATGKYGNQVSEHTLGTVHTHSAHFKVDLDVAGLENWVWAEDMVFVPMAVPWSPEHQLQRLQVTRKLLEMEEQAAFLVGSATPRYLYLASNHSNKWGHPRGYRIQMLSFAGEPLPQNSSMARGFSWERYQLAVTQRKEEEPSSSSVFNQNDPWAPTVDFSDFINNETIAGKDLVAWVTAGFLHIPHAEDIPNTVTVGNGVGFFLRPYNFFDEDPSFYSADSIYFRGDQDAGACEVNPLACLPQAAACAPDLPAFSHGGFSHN
Kind of data set: Human VAP-1 enzyme inhibition test. Format: biochemical. The conditions noted are these: compound 30 nM; 14C-benzylamine 100 μM, 37° C., 1 hour; read-out: inhibition ratio. The procedure:
Human VAP-1 Enzyme Inhibition Test
This test was conducted by modifying the method of P. H. Yu et al. (Diabetologia 40 1243 (1997)). Human VAP-1 enzyme (R&D Systems, Inc.) was pre-incubated in a 96-well plate with the compound dissolved in dimethylsulfoxide at room temperature for 20 minutes. Next, in a solution to the final volume of 200 μL, the enzyme reaction solution was incubated with ^14C-benzylamine (final concentration 100 μM) at 37° C. for 1 hour. The reaction was terminated by the addition of 100 μL of 2 M citric acid solution to the reaction solution. The oxidative product was extracted using a toluene/ethyl acetate mixture and the radioactivity was measured with a liquid scintillation counter. The inhibition ratio of the compound was calculated using the following equation. Inhibition ratio={1−[VAP-1 enzyme activity after treatment with the compound]/[VAP-1 enzyme activity in the presence of dimethylsulfoxide alone without the compound]}×100 [Math. 1]

Data set [1] in a line: Rat pharmacokinetic (PK) study (concentration of compound in plasma after oral administration). The class given is in vivo, SD rats. The conditions noted are these: dose 3 mg/kg. As for the experimental part: Rat Pharmacokinetic (PK) Study (Concentration of Compound in Plasma after Oral Administration)
Seven to eight week old SD rats (weighing 180 to 250 g) were orally administered with a suspension of the compound in 0.5 W/V % methylcellulose 400 solution. Under anesthesia, the blood was collected from the jugular vein in EDTA tubes at 0.25, 0.5, 1, 2, 4, 6, 8 and 24 hours after the administration of the compound. The blood was centrifuged at 4° C. and 6000 g for 3 minutes to give plasma. Acetonitrile was added to the plasma, and the mixture was stirred with a shaker at 750 rpm for 3 minutes and was deproteinized by centrifugation at 3700 rpm for 2 minutes. The obtained sample was analyzed by LC/MS under the following conditions.
The concentration of the compound in the plasma at each blood sampling time was determined by an internal standard method, and AUC all (Area Under Curve) was calculated by a trapezoidal method.
The following LC and MS systems were used for measurement.
LC: CBM 30 series manufactured by Shimadzu Corporation
Column: Phenomenex Kinetex C18 (50×2.1 mm, 2.6 μm)
Column temperature: 40° C.
Mobile phase A: 0.1% aqueous formic acid solution, mobile phase B: 0.1% formic acid, 50% acetonitrile/methanol mixture
MS: 3200 manufactured by SCIEX

Consider `COC1CN(c2ncc(-c3cccc(COC(=O)NC(=N)N)c3F)cc2F)C1` [Example 1, 2-Fluoro-3-[5-fluoro-6-(3-methoxyazetidin-1-yl)pyridin-3-yl]benzyl carbamimidoylcarbamate], for which the inhibition in vivo at 0.3 mg/kg on rat plasma VAP-1 is at least 50%. Moreover, on Human VAP-1 enzyme, the inhibition at 0.03 µM is at least 50%.

With `[2H]C([2H])([2H])OC1CN(c2ncc(-c3cccc(COC(=O)NC(=N)N)c3F)cc2F)C1` [Example 2, 2-Fluoro-3-{5-fluoro-6-[3-(methoxy-d3)azetidin-1-yl]pyridin-3-yl}benzyl carbamimidoylcarbamate], the inhibition in vivo at 0.3 mg/kg on rat plasma VAP-1 was at least 50%. For the same compound, the inhibition at 0.03 µM at Human VAP-1 enzyme was at least 50%.

In the case of `CCOC1CN(c2ncc(-c3cccc(COC(=O)NC(=N)N)c3F)cc2F)C1` [Example 3, 3-[6-(3-Ethoxyazetidin-1-yl)-5-fluoropyridin-3-yl]-2-fluorobenzyl carbamimidoylcarbamate], the inhibition in vivo at 0.3 mg/kg at rat plasma VAP-1 was at least 50%. Moreover, the inhibition at 0.03 µM at Human VAP-1 enzyme is at least 50%.

`N=C(N)NC(=O)OCc1cccc(-c2cnc(N3CC(OCCF)C3)c(F)c2)c1F` [Example 4, 2-Fluoro-3-{5-fluoro-6-[3-(2-fluoroethoxy)azetidin-1-yl]pyridin-3-yl}benzyl carbamimidoylcarbamate]: the inhibition in vivo at 0.3 mg/kg on rat plasma VAP-1 was at least 50%. In addition, the inhibition at 0.03 µM at Human VAP-1 enzyme was at least 50%.

Regarding `CC(C)OC1CN(c2ncc(-c3cccc(COC(=O)NC(=N)N)c3F)cc2F)C1` [Example 6, 2-Fluoro-3-[5-fluoro-6-(3-isopropoxyazetidin-1-yl)pyridin-3-yl]benzyl carbamimidoylcarbamate], the inhibition in vivo at 0.3 mg/kg at rat plasma VAP-1 is at least 50%. Besides, the inhibition at 0.03 µM on Human VAP-1 enzyme was at least 50%.

As for `N=C(N)NC(=O)OCc1cccc(-c2cnc(N3CC(O)C3)c(F)c2)c1F` [Example 8, 2-Fluoro-3-[5-fluoro-6-(3-hydroxyazetidin-1-yl)pyridin-3-yl]benzyl carbamimidoylcarbamate], the inhibition in vivo at 0.3 mg/kg on rat plasma VAP-1 was at least 50%. At Human VAP-1 enzyme, the inhibition at 0.03 µM is at least 50%. Besides, the “amount of metabolites found in the blood” value in data set [1] was “small”.

As to `N=C(N)NC(=O)OCc1cccc(-c2cnc(N3CCC3)c(F)c2)c1F` [Example 9, 3-[6-(Azetidin-1-yl)-5-fluoropyridin-3-yl]-2-fluorobenzyl carbamimidoylcarbamate], the inhibition in vivo at 0.3 mg/kg on rat plasma VAP-1 was at least 50%. The inhibition at 0.03 µM at Human VAP-1 enzyme is at least 50%.

Regarding `N=C(N)NC(=O)OCc1cccc(-c2cnc(N3CC(F)C3)c(F)c2)c1F` [Example 10, 2-Fluoro-3-[5-fluoro-6-(3-fluoroazetidin-1-yl)pyridin-3-yl]benzyl carbamimidoylcarbamate], the inhibition in vivo at 0.3 mg/kg at rat plasma VAP-1 is at least 50%. Besides, the inhibition at 0.03 µM on Human VAP-1 enzyme is at least 50%.

For `N=C(N)NC(=O)OCc1cccc(-c2cnc(N3CC(F)(F)C3)c(F)c2)c1F` [Example 11, 3-[6-(3,3-Difluoroazetidin-1-yl)-5-fluoropyridin-3-yl]-2-fluorobenzyl carbamimidoylcarbamate], the inhibition in vivo at 0.3 mg/kg on rat plasma VAP-1 is at least 50%. In addition, on Human VAP-1 enzyme, the inhibition at 0.03 µM is at least 50%.

On to `CC1CN(c2ncc(-c3cccc(COC(=O)NC(=N)N)c3F)cc2F)C1` [Example 12, 2-Fluoro-3-[5-fluoro-6-(3-methylazetidin-1-yl)pyridin-3-yl]benzyl carbamimidoylcarbamate], for which the inhibition in vivo at 0.3 mg/kg on rat plasma VAP-1 is at least 50%. The inhibition at 0.03 µM on Human VAP-1 enzyme was at least 50%.

With `CC1(C)CN(c2ncc(-c3cccc(COC(=O)NC(=N)N)c3F)cc2F)C1` [Example 13, 3-[6-(3,3-Dimethylazetidin-1-yl)-5-fluoropyridin-3-yl]-2-fluorobenzyl carbamimidoylcarbamate], the inhibition in vivo at 0.3 mg/kg at rat plasma VAP-1 was at least 50%. Further, on Human VAP-1 enzyme, the inhibition at 0.03 µM is at least 50%.

Turning to `CC1(O)CN(c2ncc(-c3cccc(COC(=O)NC(=N)N)c3F)cc2F)C1` [Example 15, 2-Fluoro-3-[5-fluoro-6-(3-hydroxy-3-methylazetidin-1-yl)pyridin-3-yl]benzyl carbamimidoylcarbamate], on rat plasma VAP-1, the inhibition in vivo at 0.3 mg/kg is at least 50%. In addition, the inhibition at 0.03 µM on Human VAP-1 enzyme is at least 50%. Also, in data set [1], the “amount of metabolites found in the blood” value was “small”.

As to `N=C(N)NC(=O)OCc1cccc(-c2cnc(N3CC4(COC4)C3)c(F)c2)c1F` [Example 16, 2-Fluoro-3-[5-fluoro-6-(2-oxa-6-azaspiro[3.3]heptan-6-yl)pyridin-3-yl]benzyl carbamimidoylcarbamate], the inhibition in vivo at 0.3 mg/kg on rat plasma VAP-1 was at least 50%. The inhibition at 0.03 µM on Human VAP-1 enzyme is at least 50%. Moreover, the “amount of metabolites found in the blood” value in data set [1] is given as “small”.
